Data on five compounds can be found in PMC6843521, “Discrimination of Oviposition Deterrent Volatile β-Ionone by Odorant-Binding Proteins 1 and 4 in the Whitefly Bemisia tabaci” (Biomolecules, 2019).

The structures appear in SMILES notation. pIC50, pKd, pKi: −log10 of the molar value. Counter-ions that a name gives are not always drawn. Like-named read-outs stand apart in the source and are kept apart here.

For test [1], the target named is T1, OBP1 (Bemisia tabaci, UniProt A0A1S6JPY5). Kind of test: Fluorescence competitive binding assay, recombinant OBP1 with 1-NPN probe. The method, then:
(§1) N-Phenyl-1-naphthylamine (1-NPN), 4,4′-Dianilino-1,1′-binaphthyl-5,5′-disulfonic acid dipotassium salt (bis-ANS), β-ionone, α-ionone, and […] were diluted with chromatographic-grade methanol to a final concentration of 1 mmol·L^−1, and the protein was diluted with 50 mM Tris-HCl (pH 7.4) to a final concentration of 2 μmol·L^−1. When 1-NPN was used as fluorescent probe, the excitation wavelength of the fluorescence spectrophotometer was set to 337 nm, and the scanning range was 350−500 nm. When bis-ANS was used as fluorescent probe, the excitation wavelength of the fluorescence spectrophotometer was set to 295 nm, and the scanning range was 300−550 nm. The fluorescent probe was gradually added to the protein-containing quartz tube to make it close to saturation. According to the Scatchard equation [35], the binding dissociation constants K1-NPN of OBP1 and the fluorescent probe 1-NPN and Kbis-ANS of OBP4 and fluorescent probe bis-ANS were determined. Protein and fluorescent probes were added to the quartz dish (the final concentration was 2 μM), and ionone was gradually added to determine the binding ability of the protein and ionone, and the dissociation constant Ki was calculated using the formula: Ki = [IC50]/(1 + [L]/KL), where [IC50] is the concentration of the ligand at which the fluorescence intensity is reduced by half, [L] is the concentration of the free fluorescent probe, and KL is the binding dissociation constant of the protein and the fluorescent probe. N-Phenyl-1-naphthylamine (1-NPN, Chemical Abstract Service (CAS): 90-30-2), 4,4’-dianilino-1,1’-binaphthyl-5,5’-disulfonic acid dipotassium salt (bis-ANS, CAS: 65664-81-5), methanol (CAS: 67-56-1), α-ionone (CAS: 127-41-3), β-ionone (CAS: 14901-07-6), and dihydro-β-ionone (CAS: 17283-81-7) were purchased from Sigma-Aldrich (St. Louis, MO, USA).

Test [2] has as its target T2, OBP4 (Bemisia tabaci, UniProt A0A1S6JPY9). As to the kind of experiment: Fluorescence competitive binding assay, recombinant OBP4 with bis-ANS probe. The method, then: as §1
Test [3] addresses T1, OBP1. Kind of test: Fluorescence competitive binding, OBP1 with bis-ANS as probe (Figure S2C). The method, then: as §1
Test [4] deals with T2, OBP4. Kind of test: Fluorescence competitive binding, OBP4 with 1-NPN as probe (Figure S2D). To be noted: OBP4, 1-NPN as probe. As to the method: as §1
In test [5] the test system is B. tabaci. To be noted: cited from earlier work.
In test [6] the test system is spider mite. The arrangement: method as in Caceres et al. [10]. As to conditions: ref Caceres et al. [10]; cited from earlier work.
In test [7] the target is OBP8. The arrangement: method as in doi:10.1016/j.cropro.2009.10.001, PMID 19458158. To be noted: B. tabaci OBP8; ref [9],[31]; cited from earlier work.
Test [8] deals with flea beetle. The arrangement: method as in Caceres et al. [10]. As to conditions: ref Caceres et al. [10]; cited from earlier work.

T1 sequence (A0A1S6JPY5 entry or part of it): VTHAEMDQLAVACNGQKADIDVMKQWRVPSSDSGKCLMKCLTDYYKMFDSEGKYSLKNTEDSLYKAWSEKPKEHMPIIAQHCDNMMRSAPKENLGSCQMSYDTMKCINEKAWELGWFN
T2 sequence (A0A1S6JPY9 entry or part of it): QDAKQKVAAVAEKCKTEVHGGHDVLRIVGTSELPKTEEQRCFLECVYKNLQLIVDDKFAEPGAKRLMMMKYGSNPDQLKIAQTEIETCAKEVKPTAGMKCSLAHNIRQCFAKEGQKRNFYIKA

Take `c1ccc(Nc2cccc3ccccc23)cc1` [1-NPN, N-Phenyl-1-naphthylamine, reference compound]: the pKd in test [1] was 5.47.
Turning to `O=S(=O)(O)c1cccc2c(-c3ccc(Nc4ccccc4)c4c(S(=O)(=O)O)cccc34)ccc(Nc3ccccc3)c12` [bis-ANS, 4,4′-Dianilino-1,1′-binaphthyl-5,5′-disulfonic acid dipotassium salt, reference compound], the pKd in test [2] (OBP4 2 μmol·L^−1, 50 mM Tris-HCl pH 7.4, excitation 295 nm, read-out: dissociation constant of fluorescent probe (Scatchard)) is 5.57.
For the compound `CC(=O)CCC1=C(C)CCCC1(C)C` [dihydro-β-ionone], the “binding ability (words)” value is on record as “did not” in test [3]; “did not” in test [4]; “hardly displaced the fluorescent probe” in test [1] (OBP1, 1-NPN probe); “hardly displaced the fluorescent probe” in test [2] (OBP4, bis-ANS probe). For the same compound, the pIC50 – broadly, the negative decadic logarithm of the IC50, by convention in mol/L – in test [1] (OBP1, 1-NPN probe, dash symbol of Table S2, read-out: IC50) was less than 4.30; in test [2] (OBP4, bis-ANS probe, dash symbol of Table S2, read-out: IC50), less than 4.30.
`CC(=O)/C=C/C1C(C)=CCCC1(C)C` (stereo not drawn) [α-ionone]: the “binding ability (words)” value is recorded as “did not” in test [3]; “did not” in test [4]; “weak binding” in test [1] (OBP1, 1-NPN probe); “weaker binding” in test [1] (OBP1, 1-NPN probe, listed as α-Ionone); “weak binding” in test [2] (OBP4, bis-ANS probe); “weaker binding” in test [2] (OBP4, bis-ANS probe, listed as α-Ionone). In addition, the pIC50 in test [1] was 4.40; in test [2], 4.68. Also, in test [5] (doses of 0.05 ng/μL and 0.5 ng/μL, ref [10]), the “ovipositioning repellent to whitefly” value was “weak ovipositioning repellent”.
On to `CC(=O)/C=C/C1=C(C)CCCC1(C)C` [β-ionone], for which the “binding ability (words)” value in test [3] and in test [4] was “bonded well” each time. The pIC50 in test [1] is 5.15; in test [2] it was 5.29. In addition, the repellent effect entry in test [6] and in test [8] was “strong repellent effect” in each case. For the same compound, the “B. tabaci egg production” value in test [5] (concentrations of 0.1 ng/μL and 0.5 ng/μL, ref Cáceres et al. [10]) is given as “significantly inhibit”. Besides, in test [5] (ref Caceres et al. [10]), the “oviposition deterrence to whiteflies” value is listed as “significant oviposition deterrence”. For the same compound, in test [7], the pKi (as a rule, the negative decadic logarithm of the Ki, by convention in mol/L) was 4.88.
